Measured values as given in publication PMC9239059, “Structure-Guided Synthesis of FK506 and FK520 Analogs with Increased Selectivity Exhibit In Vivo Therapeutic Efficacy against Cryptococcus” (mBio, 2022).
Converted amounts (≈) assume the structure as drawn.

What was measured:
Mucor circinelloides = assay: microbe, parasite or virus in culture; set-up: species or system Aspergillus fumigatus and other molds; modified CLSI M38-A2 broth microdilution in RPMI 1640, mold growth inhibition (MIC/MEC); details: Mucor circinelloides; MIC/MEC
Procedure: (§1) In vitro antifungal activities of FK506, FK520, and analogs were assessed in RPMI 1640 (Sigma-Aldrich) for all strains tested. MICs/minimum effective concentrations (MECs) for each drug were measured using modified Clinical and Laboratory Standards Institute (CLSI) M38-A2 and M27-A3 standard in vitro antifungal susceptibility protocols. Broth microdilution assays for MIC/MEC assessment were performed as described previously ([33]). All antifungal assays with C. neoformans were performed at 37°C. Antifungal susceptibility testing for C. albicans was performed in the presence of a uniform 1 μg/mL concentration of fluconazole to sensitize the organism to calcineurin inhibition. MICs/minimum effective concentrations (MECs) were determined for each of the novel analogs against the three major human fungal pathogens, A. fumigatus, C. neoformans, and C. albicans. […] Thus, analogs of FK506 and FK520 can tolerate up to 100-fold reduction in antifungal activity and still be considered for in vivo testing. For C. neoformans, MICs were the most uniform and ranged from 0.2 to 2 μg/mL, which is between 4- and 40-fold reduced for antifungal activity. C. albicans MICs ranged from 0.2 to 6.25 μg/mL, which is between 10- and 312.5-fold reduced for activity. Despite being one of the most difficult to treat fungal infections, all six analogs were active against A. fumigatus with MECs ranging from 1 to 2 μg/mL or a 62.5- to 125-fold reduction in activity. Two FK520 analogs, JH-FK-05 and JH-FK-07, maintained high levels of broad-spectrum antifungal activity across the three species, and JH-FK-07 had the lowest MICs for both C. neoformans and C. albicans. To assess the antifungal activity against other human fungal pathogens, we selected JH-FK-05 to test against a panel of pathogenic molds and drug-resistant A. fumigatus strains (Table S3). JH-FK-05 registered MECs as low as 1 μg/mL for some of these highly recalcitrant species, such as Mucor circinelloides, Rhizopus oryzae, and pan azole-resistant A. fumigatus (strain F14946).

Aspergillus terreus = assay: microbe, parasite or virus in culture; set-up: species or system Aspergillus fumigatus and other molds; modified CLSI M38-A2 broth microdilution in RPMI 1640, mold growth inhibition (MIC/MEC); details: Aspergillus terreus; MIC/MEC
Procedure: as §1

Aspergillus flavus = assay: microbe, parasite or virus in culture; set-up: species or system Aspergillus fumigatus and other molds; modified CLSI M38-A2 broth microdilution in RPMI 1640, mold growth inhibition (MIC/MEC); details: Aspergillus flavus; MIC/MEC
Procedure: as §1

Aspergillus niger = assay: microbe, parasite or virus in culture; set-up: species or system Aspergillus fumigatus and other molds; modified CLSI M38-A2 broth microdilution in RPMI 1640, mold growth inhibition (MIC/MEC); details: Aspergillus niger; MIC/MEC
Procedure: as §1

[1] = tested on: T1, Aspergillus fumigatus F12776; assay: microbe, parasite or virus in culture; set-up: species or system Aspergillus fumigatus and other molds; modified CLSI M38-A2 broth microdilution in RPMI 1640, mold growth inhibition (MIC/MEC); details: F12776, MIC/MEC, azole-resistant strain
T1 construct: F12776
Procedure: as §1

[2] = tested on: T2, Aspergillus fumigatus F7075; assay: microbe, parasite or virus in culture; set-up: species or system Aspergillus fumigatus and other molds; modified CLSI M38-A2 broth microdilution in RPMI 1640, mold growth inhibition (MIC/MEC); details: F7075, MIC/MEC, azole-resistant strain
T2 construct: F7075
Procedure: as §1

Scedosporium apiospermum = assay: microbe, parasite or virus in culture; set-up: species or system Aspergillus fumigatus and other molds; modified CLSI M38-A2 broth microdilution in RPMI 1640, mold growth inhibition (MIC/MEC); details: Scedosporium apiospermum; MIC/MEC
Procedure: as §1

Rhizopus oryzae = assay: microbe, parasite or virus in culture; set-up: species or system Aspergillus fumigatus and other molds; modified CLSI M38-A2 broth microdilution in RPMI 1640, mold growth inhibition (MIC/MEC); details: Rhizopus arrhizus; MIC/MEC
Procedure: as §1

Scedosporium prolificans = assay: microbe, parasite or virus in culture; set-up: species or system Aspergillus fumigatus and other molds; modified CLSI M38-A2 broth microdilution in RPMI 1640, mold growth inhibition (MIC/MEC); details: Lomentospora prolificans; MIC/MEC
Procedure: as §1

Paecilomyces variotti = assay: microbe, parasite or virus in culture; set-up: species or system Aspergillus fumigatus and other molds; modified CLSI M38-A2 broth microdilution in RPMI 1640, mold growth inhibition (MIC/MEC); details: Paecilomyces; MIC/MEC
Procedure: as §1

[3] = tested on: T3, Aspergillus fumigatus F16216; assay: microbe, parasite or virus in culture; set-up: species or system Aspergillus fumigatus and other molds; modified CLSI M38-A2 broth microdilution in RPMI 1640, mold growth inhibition (MIC/MEC); details: F16216, MIC/MEC, azole-resistant strain
T3 construct: F16216
Procedure: as §1

Rhizomucor pusilus = assay: microbe, parasite or virus in culture; set-up: species or system Aspergillus fumigatus and other molds; modified CLSI M38-A2 broth microdilution in RPMI 1640, mold growth inhibition (MIC/MEC); details: Rhizomucor; MIC/MEC
Procedure: as §1

[4] = tested on: T4, Aspergillus fumigatus F14946; assay: microbe, parasite or virus in culture; set-up: species or system Aspergillus fumigatus and other molds; modified CLSI M38-A2 broth microdilution in RPMI 1640, mold growth inhibition (MIC/MEC); details: F14946, MIC/MEC, azole-resistant strain
T4 construct: F14946
Procedure: as §1

[5] = tested on: T5, Aspergillus fumigatus F16314; assay: microbe, parasite or virus in culture; set-up: species or system Aspergillus fumigatus and other molds; modified CLSI M38-A2 broth microdilution in RPMI 1640, mold growth inhibition (MIC/MEC); details: F16314, MIC/MEC, azole-resistant strain
T5 construct: F16314
Procedure: as §1

[6] = tested on: T6, Aspergillus fumigatus (Wild-type) (akuBKu80); assay: microbe, parasite or virus in culture; set-up: species or system Aspergillus fumigatus and other molds; modified CLSI M38-A2 broth microdilution in RPMI 1640, mold growth inhibition (MIC/MEC); details: MIC/MEC
T6 construct: akuBKu80
Procedure: as §1

FKBP12 [7] = target: T7, FKBP12 (Candida albicans, UniProt C4YFI3+C4YS24+P28870); assay: BLI, compound-mediated ternary complex formation, […] compound; format: binding
T7 construct: gene RBP1; biotinylated (Avi-tagged) FKBP12; with CnA-CnB-calmodulin
T7 sequence (P28870 whole entry): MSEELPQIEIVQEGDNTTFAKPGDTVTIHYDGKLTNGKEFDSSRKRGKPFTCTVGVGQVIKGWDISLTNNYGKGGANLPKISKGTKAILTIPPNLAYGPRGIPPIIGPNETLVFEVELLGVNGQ
T7 sequence (C4YFI3 54-445): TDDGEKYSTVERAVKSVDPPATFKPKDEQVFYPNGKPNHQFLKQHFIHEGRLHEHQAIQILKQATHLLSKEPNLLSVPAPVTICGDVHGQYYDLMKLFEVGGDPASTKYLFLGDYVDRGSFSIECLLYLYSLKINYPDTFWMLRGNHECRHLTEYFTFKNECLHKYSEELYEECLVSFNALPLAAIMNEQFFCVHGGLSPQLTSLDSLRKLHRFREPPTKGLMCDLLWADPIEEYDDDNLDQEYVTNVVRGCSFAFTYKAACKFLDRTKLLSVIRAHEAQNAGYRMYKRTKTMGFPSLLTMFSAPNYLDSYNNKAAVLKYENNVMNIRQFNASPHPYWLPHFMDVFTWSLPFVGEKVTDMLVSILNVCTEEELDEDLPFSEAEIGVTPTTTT
T7 sequence (C4YS24 1-173): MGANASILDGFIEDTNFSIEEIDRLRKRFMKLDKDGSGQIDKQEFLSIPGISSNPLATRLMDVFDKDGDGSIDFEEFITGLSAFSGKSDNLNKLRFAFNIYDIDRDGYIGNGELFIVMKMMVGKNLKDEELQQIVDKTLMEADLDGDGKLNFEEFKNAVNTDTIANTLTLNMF
T7 sequence (P23286 whole entry partner): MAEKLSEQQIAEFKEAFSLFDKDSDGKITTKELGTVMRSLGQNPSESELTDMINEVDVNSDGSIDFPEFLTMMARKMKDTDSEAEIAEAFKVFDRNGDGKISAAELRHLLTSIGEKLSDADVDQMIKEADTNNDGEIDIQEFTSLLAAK

FKBP12 [8] = target: T8, FKBP12 (Aspergillus fumigatus, UniProt Q4WLV6); assay: as above; format: binding
T8 construct: gene fpr1A; biotinylated (Avi-tagged) FKBP12; with CnA-CnB-calmodulin
T8 sequence (Q4WLV6 whole entry): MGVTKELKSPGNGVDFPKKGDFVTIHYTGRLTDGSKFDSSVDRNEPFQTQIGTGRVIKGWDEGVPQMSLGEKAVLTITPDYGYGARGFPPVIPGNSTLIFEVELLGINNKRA
T8 sequence (Q4WUR1 whole entry partner): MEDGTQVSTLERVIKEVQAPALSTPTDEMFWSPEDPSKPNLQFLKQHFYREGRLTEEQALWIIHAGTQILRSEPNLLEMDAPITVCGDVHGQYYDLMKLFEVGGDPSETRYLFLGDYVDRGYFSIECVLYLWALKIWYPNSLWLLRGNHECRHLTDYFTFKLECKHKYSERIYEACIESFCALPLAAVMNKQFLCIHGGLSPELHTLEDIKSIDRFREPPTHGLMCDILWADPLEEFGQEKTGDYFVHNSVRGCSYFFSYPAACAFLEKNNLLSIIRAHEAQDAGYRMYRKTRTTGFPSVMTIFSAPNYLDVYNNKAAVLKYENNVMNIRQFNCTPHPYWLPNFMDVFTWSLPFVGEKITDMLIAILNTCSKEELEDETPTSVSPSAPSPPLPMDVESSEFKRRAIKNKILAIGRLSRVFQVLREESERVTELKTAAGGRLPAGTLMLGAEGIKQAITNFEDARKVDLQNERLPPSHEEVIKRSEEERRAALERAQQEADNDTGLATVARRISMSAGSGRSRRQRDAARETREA

[9] = tested on: T9, Cryptococcus neoformans (H99); assay: microbe, parasite or virus in culture; set-up: CLSI M27-A3 broth microdilution in RPMI 1640 at 37 C, growth inhibition of C. neoformans (MIC); details: Cryptococcus neoformans, read-out: MIC (μg/mL) against: / Cryptococcus neoformans (H99)^a
T9 construct: H99
Procedure: as §1, with “activity.” for “activity. Two FK520 analogs, JH-FK-05 and JH-FK-07, maintained high levels of broad-spectrum antifungal activity across the three species, and JH-FK-07 had the lowest MICs for both C. neoformans and C. albicans. To assess the antifungal activity against other human fungal pathogens, we selected JH-FK-05 to test against a panel of pathogenic molds and drug-resistant A. fumigatus strains (Table S3). JH-FK-05 registered MECs as low as 1 μg/mL for some of these highly recalcitrant species, such as Mucor circinelloides, Rhizopus oryzae, and pan azole-resistant A. fumigatus (strain F14946).”

## CC[C@@H]1/C=C(\C)C[C@H](C)C[C@H](OC)[C@H]2O[C@@](O)(C(=O)C(=O)N3CCCC[C@H]3C(=O)O[C@H](/C(C)=C/[C@@H]3CC[C@@H](O)[C@H](OC)C3)[C@H](C)[C@@H](O)C/C1=N/NC(C)=O)[C@H](C)C[C@@H]2OC [JH-FK-05]
Mucor circinelloides
  MIC: 1 µg/mL (≈ 1.18 µM)
Aspergillus terreus
  MIC: 1 µg/mL (≈ 1.18 µM)
Aspergillus flavus
  MIC: 1 µg/mL (≈ 1.18 µM)
Aspergillus niger
  MIC: < 1 µg/mL
[1]
  MIC: 2 µg/mL (≈ 2.36 µM)
[2]
  MIC: 2 µg/mL (≈ 2.36 µM)
Scedosporium apiospermum
  MIC: > 8 µg/mL
Rhizopus oryzae
  MIC: 1 µg/mL (≈ 1.18 µM)
Scedosporium prolificans
  MIC: > 8 µg/mL
Paecilomyces variotti
  MIC: > 8 µg/mL
[3]
  MIC: 1 µg/mL (≈ 1.18 µM)
Rhizomucor pusilus
  MIC: > 8 µg/mL
[4]
  MIC: 1 µg/mL (≈ 1.18 µM)
[5]
  MIC: 1 µg/mL (≈ 1.18 µM)
[6]
  MIC: 1 µg/mL (≈ 1.18 µM)
FKBP12 [7]
  BLI, compound-mediated ternary complex formation, 10 μM compound: target complexes form in the presence of the analogs with affinities similar to those of the parent compounds
FKBP12 [8]
  BLI, compound-mediated ternary complex formation, 10 μM compound: target complexes form in the presence of the analogs with affinities similar to those of the parent compounds
[9]
  MIC: 1 µg/mL (≈ 1.18 µM)
